According to patent US10537521B2 (priority 2016, dated 2020):
Where two headings read alike, the source gives them in different places.

Tests used:
[1] = after oral administration of tramadol (single dose of 100 mg); cited from earlier work
[2] = Example 1: multiple-dose randomized 3-way crossover PK study of two IV tramadol regimens vs 100 mg oral q6h; details: mean; for AUCtau n: last dosing interval
Method: A fitted curve was obtained because the second oral peak was not measured in the study. For the modeling portion of the analysis, a validated Phoenix® WinNonlin® program version 6.4 (Certara) was used for PK analysis, simulation, graphics, tables and statistical calculations. […] For purposes of nonlinear regression, the data were weighted as 1/observed. Predicted concentration-time data were calculated based on the individual fitted PK parameters.

[3] = Example 4: multiple dose steady-state dose proportionality study, tramadol injection 50/100 mg IV and Ultram tablet 50/100 mg oral q6h; assay type: in vivo, human; details: steady-state, healthy volunteers
Method: The study was an open-label, single-period, randomized, parallel treatment design. Subjects received study drug every 6 hours beginning on the morning of Day 1 and ending on the morning of Day 3. The first dose on Day 1 and the last dose on Day 3 were administered after a minimum 10 hour fast.

[4] = tramadol single […] [100 mg] p.o., humans N=12 male; cited from earlier work
[5] = test system: experienced opioid abusers; details: tramadol 100 and 200 mg IV, cited from earlier work
postoperative pain = details: after 4 to 6 hours; IV or IM intermittent injection, dose titrated to pain response; cited from earlier work
[6] = test system: patients undergoing abdominal surgery; details: initial tramadol 100 mg or morphine 5 mg i.v., repeat tramadol 50 mg or morphine 5 mg on demand; cited from earlier work
[7] = 50 mg IV regimen (h 0, 2, 4, then q4h to h 44), plasma
[8] = 75 mg IV regimen (h 0, 3, 6, then q6h to h 42)
[9] = 75 mg IV regimen (h 0, 3, 6, then q6h to h 42), plasma
[10] = 100 mg oral q6h to h 42, plasma
[11] = Tramadol dosed as 50 mg IV every 6 hours
[12] = Tramadol dosed as 50 mg Oral (Ultram tablet) every 6 hours
[13] = Tramadol dosed as 100 mg IV every 6 hours
[14] = Tramadol dosed as 100 gm Oral (Ultram tablet) every 6 hours

For CN(C)C[C@H]1CCCC[C@]1(O)c1cccc(O)c1 [O-desmethyltramadol], the half-life [1] is listed as “approximately 6.7 hours”, the “Cmax(0-2)” value ([2]; 50 mg IV regimen (h 0, 2, 4, then q4h to h 44), first dose, plasma) is listed as 17.1 ng/mL and the “RAC(trough)” value ([2]; 50 mg IV regimen (h 0, 2, 4, then q4h to h 44)) is listed as 5.2872. It also gave an AUC0-24 [2, 7] of 1425 ng·h/mL, an AUC0-48 [2, 7] of 3427 ng·h/mL and an AUC24-48 [2, 7] of 2002 ng·h/mL. The C2 [2, 7] was 16.9 ng/mL, the “C48 (T48)” value [2, 7] was 81.7 ng/mL and the C1 h [2, 7] was 11.8 ng/mL. For the same molecule, the “Cmax(2-4)” value [2, 7] was 37.8 ng/mL, the Css [2, 7] was 88.9 ng/mL and the Tmax [2, 7] was 44.95 h. The “Tmax(0-2)” value [2, 7] was 1.85 h, the “Tmax(2-4)” value [2, 7] was 3.95 h and the “Tmax(44-48)” value [2, 7] was 45.31 h. For the same molecule, the “Cmax(0-3)” value ([2]; 75 mg IV regimen (h 0, 3, 6, then q6h to h 42), first dose, plasma) was 29.7 ng/mL, the AUCtau n [2, 8] was 519.8 ng·h/mL and the “RAC(trough)” value [2, 8] was 2.7237. The AUC0-24 [2, 9] was 1608 ng·h/mL, the AUC0-48 [2, 9] was 3504 ng·h/mL and the AUC24-48 [2, 9] was 1896 ng·h/mL. The C3 [2, 9] was 29.5 ng/mL, the “C48 (T48)” value [2, 9] was 75.9 ng/mL and the C1 h [2, 9] was 19.9 ng/mL. For the same molecule, the “Cmax(3-6)” value [2, 9] was 59.4 ng/mL, the Css [2, 9] was 86.6 ng/mL and the Tmax [2, 9] was 32.99 h. For the same molecule, the “Tmax(0-3)” value [2, 9] was 2.71 h, the “Tmax(3-6)” value [2, 9] was 5.81 h and the “Tmax(42-48)” value [2, 9] was 43.10 h. For the same molecule, the “Cmax(0-6)” value ([2]; 100 mg oral q6h to h 42, first dose, plasma) was 60.3 ng/mL, the AUCtau n ([2]; 100 mg oral q6h to h 42) was 768.4 ng·h/mL and the “RAC(trough)” value ([2]; 100 mg oral q6h to h 42) was 2.7839. For the same molecule, the AUC0-24 [2, 10] was 1655 ng·h/mL, the AUC0-48 [2, 10] was 4349 ng·h/mL and the AUC24-48 [2, 10] was 2693 ng·h/mL. The C6 [2, 10] was 42.3 ng/mL, the “C48 (T48)” value [2, 10] was 111 ng/mL and the C1 h [2, 10] was 41.4 ng/mL. It also gave a Cmax [2, 10] of 146 ng/mL, a Css [2, 10] of 128 ng/mL and a Tmax [2, 10] of 43.97 h. For the same molecule, the “Tmax(0-6)” value [2, 10] was 2.04 h, the “Tmax(42-48)” value [2, 10] was 43.97 h and the “Cmax(42-48)” value ([2]; 100 mg oral q6h to h 42, steady-state, plasma) was 146 ng/mL.
In the case of CN(C)C[C@H]1CCCC[C@]1(O)c1cccc(O)c1 [tramadol M1 metabolite], the “Cmin, tramadol M1 metabolite, Mean ± SD” value [3, 11] is reported as 55.9 ± 7.4 ng/mL, the “Trough Peak, tramadol M1 metabolite, Mean ± SD” value (“Trough Peak … Mean ± SD” below) [3, 11] is reported as 0.715 ± 0.044 ratio and the “Cmin, tramadol M1 metabolite, Mean ± SD” value [3, 12] is reported as 65.9 ± 15.8 ng/mL. For the same molecule, the “Trough Peak … Mean ± SD” value [3, 12] was 0.670 ± 0.061 ratio, the “Cmin, tramadol M1 metabolite, Mean ± SD” value [3, 13] was 130 ± 37 ng/mL and the “Trough Peak … Mean ± SD” value [3, 13] was 0.795 ± 0.040 ratio. For the same molecule, the “Cmin, tramadol M1 metabolite, Mean ± SD” value [3, 14] was 93.6 ± 34.6 ng/mL and the “Trough Peak … Mean ± SD” value [3, 14] was 0.707 ± 0.080 ratio.
For (+)-O-desmethyltramadol [(+)-M1], the AUC [4] is listed as 1258 ± 410 ng·h/mL, the Cmax [4] is listed as 147 ± 39 ng/mL and the Tmax [4] is listed as 1.6 ± 0.5 h. For the same molecule, the t1/2 [4] was 6.0 ± 1.0 h.
In the case of CN1CC[C@]23c4c5ccc(O)c4O[C@H]2[C@@H](O)C=C[C@H]3[C@H]1C5 [morphine], the “ratings of “liking”” value ([5]; morphine 10 and 20 mg IV, over 5 minutes, 10 experienced opioid abusers) is given as “significantly increased ratings”, the “ratings of “feel drug effect” compared to placebo” value ([5]; morphine 10 and 20 mg IV, over 5 minutes) is given as “significantly increased” and the “ratings on the ARCI-MBG scale” value ([5]; morphine 20 mg IV) is given as “increased ratings”. The “reduction of pain intensity” value (postoperative pain) was 69.8% and the “responder rate (no or slight pain) within the first 90 minutes of treatment” value [6] was 81.2%.
